Experimental data: publication PMC13429874, “ABHD2 activity is not required for the non-genomic action of progesterone on human sperm” (Human Reproduction (Oxford, England), 2026)
“Also recorded” adds a separate entry of the source.

Tests used:
ABHD2^L33–E425 = target: T1, ABHD2^L33–E425 (Homo sapiens, UniProt P08910); experiment: Differential scanning fluorimetry (DSF) with purified ABHD2^L33–E425; assay type: binding
T1 construct: expression for ABHD2 amino acids L33–E425, in which a predicted transmembrane domain (amino acids 1–32) is removed; His6-FLAG (N); made in house; host or cells: E. coli BL21(DE3)-R3-pRARE2
T1 sequence (P08910 33-425): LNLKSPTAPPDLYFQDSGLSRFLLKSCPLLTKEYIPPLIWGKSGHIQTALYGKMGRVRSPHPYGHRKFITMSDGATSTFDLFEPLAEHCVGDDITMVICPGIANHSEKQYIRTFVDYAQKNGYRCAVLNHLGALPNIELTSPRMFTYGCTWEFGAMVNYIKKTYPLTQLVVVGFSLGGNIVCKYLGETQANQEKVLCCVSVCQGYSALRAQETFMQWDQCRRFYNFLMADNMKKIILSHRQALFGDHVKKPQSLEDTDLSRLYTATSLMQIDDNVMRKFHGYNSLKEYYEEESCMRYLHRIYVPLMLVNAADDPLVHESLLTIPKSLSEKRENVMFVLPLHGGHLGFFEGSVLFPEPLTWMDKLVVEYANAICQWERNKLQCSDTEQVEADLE

human sperm [1] = experiment: Sperm hyperactivation assay (CASA); assay type: cell-based; settings: 10 µM compound, 30 min
Description: Sperm hyperactivation was assessed in human sperm purified by density gradient centrifugation. Semen samples (n = 7) were allowed to liquefy for 15–30 min at 37°C, and up to 2 ml of liquified semen was layered onto a two-step GM501 gradient system (45%/90%; Gynemed; Sierksdorf, Germany) pre-equilibrated at 37°C. Gradients were centrifuged for 20 min at 400 × g (no break). The 90% pellet was collected, washed in SpermActive medium (Gynemed; composition per manufacturer: NaCl, KCl, MgSO4.7H2O, KH2PO4, 1.77 mM CaCl2.2H2O, D(+)-glucose anhydrous, sodium pyruvate, sodium lactate, EDTA, alanyl-glutamine, essential and non-essential amino acids, 25.71 mM NaHCO3, 15 mM HEPES, 5 g/l human serum albumin, 10 mg/l gentamicin, and phenol red), and incubated for at least 2 h at 37°C, 5% CO2.
For compound testing, sperm suspensions with 7.5 × 10^6 sperm/ml in SpermActive were treated with either DMSO (vehicle) or 10 µM test compound. For basal and induced hyperactivation conditions, DMSO or progesterone (3 µM), respectively, was added. Samples were incubated for 30 min at 37°C, 5% CO2, before motility analysis.
Motility was analyzed using a CASA system (CEROSII^TM Animal Motility, software version 1.16; Hamilton Thorne, Beverly, MA, USA), mounted on an Axiolab 5 microscope (Zeiss, Germany), equipped with a TPi-SX Thermal Plate (Tokai Hit; Shizuoka-ken, Japan) and a JAI CM-040-GE CCD camera (JAI; Tokyo, Japan). Leja slides (20 µm chamber depth; Leja Products B.V., Nieuw-Vennep, The Netherlands) were pre-warmed to 37°C, cleaned with lens paper, and loaded by capillary action with 6 µl sperm suspension; capillary correction was set to 1.3. Sperm tracks were recorded at 37°C using a 10× negative-phase objective, acquiring 60 frames at 60 Hz with 4 ms exposure and gain set to 600. For each sample and condition, 300–500 motile sperm from at least 10 non-overlapping fields were analyzed. Hyperactive sperm were identified using the SORT function with the following Boolean argument: VCL > 150 µm/s and LIN < 50% and ALH > 7 µm. For each sample and condition, the percentage of hyperactive sperm was normalized to the percentage of motile sperm, and the mean of two technical duplicates was reported.
Statistical analysis was performed using GraphPad Prism 10 for Windows (version 10.6.1). Data normality was assessed using Shapiro–Wilk test. Differences between basal and induced hyperactivation were evaluated using a paired t-test, with effective pairing confirmed across all comparisons. P < 0.05 was considered statistically significant.

human sperm [2] = experiment: Sperm intracellular Ca2+ measurements (Fluo-4); assay type: cell-based
Description: Measurements of the changes in sperm intracellular Ca^2+ concentration ([Ca^2+]i) were performed on motile human sperm purified by swim-up. Semen samples were allowed to liquefy for 15–60 min at 37°C, and 0.5–1 ml liquified semen was layered beneath 4 ml human tubal fluid medium (HTF; 97.8 mM NaCl, 4.69 mM KCl, 0.2 mM MgSO4, 0.37 mM KH2PO4, 2.04 mM CaCl2, 2.78 mM glucose, 0.33 mM sodium pyruvate, 21.4 mM lactic acid, 4 mM NaHCO3, and 21 mM HEPES pH 7.35 adjusted with NaOH) in 50 ml conical tubes. Motile sperm were allowed to swim up into the HTF for 60–90 min at 37°C, collected, washed twice (700 × g, 20 min, 37°C), and resuspended in HTF containing 3 mg/ml HSA at a density of 1 × 10^7 sperm/ml. Changes of [Ca^2+]i in motile human sperm were measured as previously described ([Rennhack et al., 2018]), using a fluorescence plate-reader assay (FLUOstar Omega, BMG LABTECH) with 384-well plates. Swim-up-purified sperm were loaded with Fluo4-AM (5 μM, Thermo Fisher Scientific, Waltham, MA, USA) and Pluronic F-127 (0.05% w/v) for 20 min at 37°C. Excess dye was removed by centrifugation at 700 × g for 5 min, supernatant removal, and resuspension to 5 × 10^6 sperm/ml in HTF.
For recordings, wells of a 384-well plate were filled with 50 μl of the dye-loaded sperm suspension. Fluorescence was excited at 480 nm, and emission was recorded at 520 nm using a plate reader (Fluostar Omega, BMG Labtech). After establishing a baseline for at least 60 s, 25 µl test compound solutions were added and the fluorescence response recorded. After 4 min, 7.5 µl progesterone was added to reach a final concentration of 3 µM, and ensuing changes in fluorescence were recorded. For the analysis of compound-evoked Ca^2+ signal, basal fluorescence (F0) was determined prior to compound addition. For the determination of inhibitory effects of compounds on progesterone-evoked Ca^2+ signals, basal fluorescence (F0) was determined before progesterone addition. The CatSper inhibitor TS150 ([Schierling et al., 2023]) was used as a control. Each compound was tested in technical duplicates across ≥3 biological replicates, using sperm from at least two donors, and performed on at least two separate days.
Data analysis and graphical representation were performed with GraphPad Prism software version 10.6.1 (San Diego, CA, USA). Changes in Fluo-4 fluorescence are depicted as ΔF/F0 (%), i.e. the change in fluorescence (ΔF) relative to the mean basal fluorescence (F0) before application of buffer or compounds/ligands, to correct for intra- and inter-experimental variations in basal fluorescence among individual wells or to correct for compound-evoked changes in fluorescence. Signal amplitudes evoked in the presence of compounds were normalized to the maximal signal amplitude evoked by 3 µM progesterone in the absence of the compound (set to 1) to ease comparisons between experiments.

effect on melting temperature / thermal stability of ABHD2^L33-E425 (DSF), in words (ABHD2^L33–E425; 10 µM compound, 30 min pre-incubation): increased melting temperature
ΔTm shift for ABHD2^L33-425 determined by DSF (ABHD2^L33–E425; purified protein): 14 °C
SMILES: CC1CCCN(C(=O)c2ccccc2C(=O)c2ccccc2)C1 (stereo not drawn) [Compound 4]
effect on progesterone-induced hyperactivation (human sperm [1]; 3 µM progesterone): not affected
effect on basal hyperactivation (human sperm [1]): No statistically significant differences; also recorded: did not affect
compound-evoked changes in [Ca2+]i (human sperm [2]; 10 µM compound): only minuscule changes
effect on progesterone-induced Ca2+ signal (amplitude and waveform) (human sperm [2]; compounds 10 µM, TS150 60 µM, progesterone 3 µM): similar
